Results published in patent publication US20250263436A1, “BROAD-SPECTRUM ANTIVIRAL DRUG FOR ENTEROVIRUS, AND APPLICATION” (WUHAN INSTITUTE OF VIROLOGY, CHINESE ACADEMY OF SCIENCES, priority 2020, published 2025).
“And” between values parts separate entries of the source, which are not always exact repeats. Identical values can stand only once. Where no end group is shown, it is not given here.

Tested on: EV71
Assay: Inhibitory activity on EV71 in RD cells by CCK8 method
Format: cell-based, enterovirus 71 (EV71)
Details: for IC50: EV71 in RD cells, CCK8 method; for Inhibition rate on EV71 virus (%): RD cells, 0.1 MOI, 24 h, CCK8
Experimental: (1) RD cells were plated in a 96-well plate at 100 μL per well.
(2) When the cells grew to a confluence of 70%-80%, the DMEM medium containing 10% serum was replaced with a DMEM medium containing 2% serum.
(§1) (3) The polypeptide drug was gradiently diluted with the DMEM containing 2% FBS into concentrations of 0.15625 μM, 0.3125 μM, 0.625 μM, 1.25 μM, 2.5 μM, and 5 μM, and then added to a new 96-well plate at 100 μL per well, with 3 replicate wells for each concentration.
(4) The diluted virus was added to the above wells at 100 μL per well. The wells with no drug and no virus added and the wells with no drug but virus added were set as controls respectively, with a final concentration of virus of 0.1 MOI.
(4) The mixture was transferred into the 96-well plate plated with cells for another 24 h of culture, and the inhibitory activity of the polypeptide on the virus was determined by a CCK8 kit.
(5) The inhibition rates of different concentrations of the polypeptides on virus infection were calculated according to a calculation formula of: inhibition rate of polypeptide=(well with drug-well with virus)×100%/(well with no drug-well with virus).
as §1, with “concentration. (4) The diluted virus was added to the above wells at 100 μL per well. The wells with no drug and no virus added and the wells with no drug but virus added were set as controls respectively, with a final concentration of virus of 0.1 MOI.” for “concentration.”

CC[C@H](C)[C@H](NC(=O)[C@H](C)NC(=O)[C@H](CO)NC(=O)[C@H](CCCNC(=N)N)NC(=O)[C@H](CC(N)=O)NC(=O)[C@H](CC(N)=O)NC(=O)[C@H](Cc1ccc(O)cc1)NC(=O)[C@H](CCC(=O)O)NC(=O)CNC(=O)[C@H](CO)NC(=O)CNC(=O)[C@H](CCCNC(=N)N)NC(=O)[C@H](CCCNC(=N)N)NC(=O)[C@H](CCCNC(=N)N)NC(=O)[C@H](CCC(N)=O)NC(=O)[C@H](CCCNC(=N)N)NC(=O)[C@H](CCCNC(=N)N)NC(=O)[C@H](CCCCN)NC(=O)[C@H](CCCCN)NC(=O)[C@H](CCCNC(=N)N)NC(=O)CNC(=O)[C@@H](N)Cc1ccc(O)cc1)C(=O)NCC(=O)N[C@@H](CC(N)=O)C(=O)N[C@H](C(=O)N[C@H](C(=O)N[C@@H](CCC(=O)O)C(=O)N[C@@H](C)C(=O)N[C@@H](CC(C)C)C(=O)N[C@@H](Cc1ccccc1)C(=O)N[C@@H](CCC(N)=O)C(=O)O)[C@@H](C)CC)[C@@H](C)O [EQ]
IC50: 1.83 µM
Inhibition rate on EV71 virus (%) (polypeptide 0.15625 μM): 6.885% and 4.675% and 10.9434%
Inhibition rate on EV71 virus (%) (polypeptide 0.3125 μM): 10.2126% and 12.8194% and 16.4536%
Inhibition rate on EV71 virus (%) (polypeptide 0.625 μM): 21.5745% and 20.64% and 25.9399%
Inhibition rate on EV71 virus (%) (polypeptide 1.25 μM): 31.5814% and 30.7778% and 32.9503%
Inhibition rate on EV71 virus (%) (polypeptide 2.5 μM): 62.8263% and 54.1779% and 55.7124%
Inhibition rate on EV71 virus (%) (polypeptide 5 μM): 86.8541% and 90.3885% and 78.0023%

YGRKKRRQRRRGSGGNTIEALFQ [GQ]
IC50: 1.78 µM
Inhibition rate on EV71 virus (%) (polypeptide 0.15625 μM): 7.219% and 10.3851% and 5.4678%
Inhibition rate on EV71 virus (%) (polypeptide 0.3125 μM): 14.8883% and 12.0678% and 14.91%
Inhibition rate on EV71 virus (%) (polypeptide 0.625 μM): 28.8333% and 30.5125% and 26.48%
Inhibition rate on EV71 virus (%) (polypeptide 1.25 μM): 43.1263% and 40.6161% and 31.07%
Inhibition rate on EV71 virus (%) (polypeptide 2.5 μM): 51.8367% and 58.9472% and 57.2507%
Inhibition rate on EV71 virus (%) (polypeptide 5 μM): 71.5094% and 77.9438% and 84.7439%

YGRKKRRQRRRGSGAIGNTIEALFQ [AQ]
IC50: 2.99 µM
Inhibition rate on EV71 virus (%) (polypeptide 0.15625 μM): 9.888% and 7.506% and 5.9715%
Inhibition rate on EV71 virus (%) (polypeptide 0.3125 μM): 15.9607% and 11.702% and 12.6022%
Inhibition rate on EV71 virus (%) (polypeptide 0.625 μM): 26.3573% and 23.7158% and 19.5264%
Inhibition rate on EV71 virus (%) (polypeptide 1.25 μM): 33.3847% and 31.7366% and 38.7678%
Inhibition rate on EV71 virus (%) (polypeptide 2.5 μM): 58.9642% and 46.161% and 41.3092%
Inhibition rate on EV71 virus (%) (polypeptide 5 μM): 51.0435% and 51.8675% and 69.1952%

CC[C@H](C)[C@H](NC(=O)[C@H](C)NC(=O)[C@H](CO)NC(=O)CNC(=O)[C@H](CO)NC(=O)CNC(=O)[C@H](CCCNC(=N)N)NC(=O)[C@H](CCCNC(=N)N)NC(=O)[C@H](CCCNC(=N)N)NC(=O)[C@H](CCC(N)=O)NC(=O)[C@H](CCCNC(=N)N)NC(=O)[C@H](CCCNC(=N)N)NC(=O)[C@H](CCCCN)NC(=O)[C@H](CCCCN)NC(=O)[C@H](CCCNC(=N)N)NC(=O)CNC(=O)[C@@H](N)Cc1ccc(O)cc1)C(=O)NCC(=O)N[C@@H](CC(N)=O)C(=O)N[C@H](C(=O)N[C@H](C(=O)N[C@@H](CCC(=O)O)C(=O)N[C@@H](C)C(=O)N[C@@H](CC(C)C)C(=O)N[C@@H](Cc1ccccc1)C(=O)N[C@@H](CCC(N)=O)C(=O)O)[C@@H](C)CC)[C@@H](C)O [SAQ]
IC50: 2.9 µM
Inhibition rate on EV71 virus (%) (polypeptide 0.15625 μM): 3.547% and 2.726% and 6.819%
Inhibition rate on EV71 virus (%) (polypeptide 0.3125 μM): 8.964% and 7.902% and 11.0435%
Inhibition rate on EV71 virus (%) (polypeptide 0.625 μM): 14.4055% and 11.5364% and 18.402%
Inhibition rate on EV71 virus (%) (polypeptide 1.25 μM): 27.4779% and 24.0778% and 33.4848%
Inhibition rate on EV71 virus (%) (polypeptide 2.5 μM): 47.0158% and 47.2468% and 36.2572%
Inhibition rate on EV71 virus (%) (polypeptide 5 μM): 75.1367% and 61.8367% and 63.2191%
